From patent US9278958B2, “Anti-cancer compounds” (KATHOLIEKE UNIVERSITEIT LEUVEN, priority 2012, dated 2016)
Like-named read-outs stand apart in the source and are kept apart here. Blank lines part the entries; values can stand above or below the compound they belong to.

Experiments:
[1] = test system: broad variety of tumor cell lines; experiment: Cytostatic assays, summary over the panel of cell lines (Tables 2-4); assay type: cell-based
Protocol: (§1) To each well of a 96-well microtiter plate were added 5-7.5×10^4 cells and a given amount of the test compound. The cells were allowed to proliferate for 48 h to 96 h (depending on the nature of the cell line) at 37° C. in a humidified CO2-controlled atmosphere. At the end of the incubation period, the cells were counted in a Coulter Counter (Coulter Electronics Ltd, Harpenden Herts, United Kingdom).

[2] = test system: OST TK- osteosarcoma cells; experiment: Cytostatic assay, OST TK-; assay type: cell-based; conditions: Homo sapiens; Table 3
In short: (§2)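 Test compound was added to wells holding 5-7.5×10^4 cells. After line-specific growth periods of 48 h to 96 h at 37° C in a moist atmosphere with regulated CO2, the number of cells was recorded by Coulter counting.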

[3] = test system: Caki-2 kidney carcinoma cells; experiment: Cytostatic assay, Caki-2; assay type: cell-based; conditions: Homo sapiens, Table 3
In short: as §2

[4] = test system: U937, human monocytic cells; experiment: Cytostatic assay, U937; assay type: cell-based; conditions: U-937, Table 2
In short: as §2

[5] = test system: HepG2C3A hepatoma cells; experiment: Cytostatic assay, HepG2C3A; assay type: cell-based; conditions: Homo sapiens, HepG2/C3A; Table 4
In short: as §2

[6] = test system: MT-2 cells; experiment: Cytostatic assay, MT-2; assay type: cell-based; conditions: Homo sapiens, MT2; Table 2
In short: as §2

[7] = test system: HT29 colorectal carcinoma cells; experiment: Cytostatic assay, HT29; assay type: cell-based; conditions: Homo sapiens, HT-29; Table 3
In short: as §2

[8] = test system: 293T embryonic kidney cells; experiment: Cytostatic assay, 293T; assay type: cell-based; conditions: Homo sapiens, HEK-293T; Table 3
In short: as §2

[9] = test system: HUT-78 cells; experiment: Cytostatic assay, HUT-78; assay type: cell-based; conditions: Homo sapiens, HuT78; Table 2
In short: as §2

[10] = test system: PLC/PRF/5 hepatoma cells; experiment: Cytostatic assay, PLC/PRF/5; assay type: cell-based; conditions: Homo sapiens, Table 4
In short: as §2

[11] = test system: Molt4/C8 cells; experiment: Cytostatic assay, Molt4/C8; assay type: cell-based; conditions: Table 2
In short: as §2

[12] = test system: DNA synthesis in CEM cells; experiment: Antimetabolic activity assay, [CH3-3H]dThd incorporation (DNA synthesis), CEM; assay type: cell-based; conditions: Homo sapiens, CCRF-CEM, incorporation into TCA-insoluble material
Protocol: (§3) Radiolabeled precursors of DNA synthesis ([^3H-methyl]dThd), RNA synthesis ([5-^3H]Urd), and protein synthesis ([4,5-^3H]leu) were added to 10^5 CEM cell cultures in the 200 μl-wells of a microtiter plate at 1 μCi for each precursor in the presence of varying concentrations of the test compounds (5-fold dilution series). The cells were allowed to proliferate for 20 hrs at 37° C. in a humidified, CO2-controlled atmosphere. At the end of the incubation period, the contents of the wells were brought onto 25-mm glass fiber filters and further processed for measurement of acid-insoluble radioactivity.

[13] = test system: 22Rv1 (UZ) prostate cancer cells; experiment: Cytostatic assay, 22Rv1 (UZ); assay type: cell-based; conditions: Homo sapiens, Table 4
In short: as §2

[14] = test system: HeLa cervix carcinoma cells; experiment: Cytostatic assay, HeLa; assay type: cell-based, human; conditions: Homo sapiens; Table 3; read-out: Cytostatic activity (μM) Hela
In short: as §2

[15] = test system: Sup T1 cells; experiment: Cytostatic assay, Sup T1; assay type: cell-based; conditions: Homo sapiens, Table 2, read-out: Cytostatic activity (μM) Sup T 1
In short: as §2

[16] = test system: RNA synthesis in Raji cells; experiment: Antimetabolic activity assay, [5-3H]uridine incorporation (RNA synthesis), Raji; assay type: cell-based; conditions: Homo sapiens, incorporation into TCA-insoluble material
Protocol: [The procedure below names another cell line; the source lists this cell line under the same test.] as §3

[17] = test system: BAEC aortic endothelial cells; experiment: Cytostatic assay, BAEC; assay type: cell-based, bovine; conditions: Bos taurus, Table 3
In short: as §2

[18] = test system: MCF-7 mammary carcinoma cells; experiment: Cytostatic assay, MCF-7; assay type: cell-based; conditions: Homo sapiens, MCF7; Table 3
In short: as §2

[19] = test system: THP-1, human monocytic cells; experiment: Cytostatic assay, THP-1; assay type: cell-based; conditions: Table 2
In short: as §2

[20] = test system: MT-4 cells; experiment: Cytostatic assay, MT-4; assay type: cell-based; conditions: Homo sapiens, MT4; Table 2
In short: as §2

[21] = test system: protein synthesis in Raji cells; experiment: Antimetabolic activity assay, [4,5-3H]leucine incorporation (protein synthesis), Raji; assay type: cell-based; conditions: Homo sapiens, incorporation into TCA-insoluble material
Protocol: [The procedure below names another cell line; the source lists this cell line under the same test.] as §3

[22] = test system: HEL embryonic lung fibroblast cells; experiment: Cytostatic assay, HEL; assay type: cell-based; conditions: Homo sapiens, Table 3
In short: as §2

[23] = test system: FM3A mammary carcinoma cells; experiment: Cytostatic assay, FM3A; assay type: cell-based, murine; conditions: Mus musculus, Table 3
In short: as §2

[24] = test system: DU145 (UZ) prostate cancer cells; experiment: Cytostatic assay, DU145 (UZ); assay type: cell-based; conditions: Homo sapiens, DU-145; Table 4
In short: as §2

[25] = test system: Daudi, human B-lymphoma cells; experiment: Cytostatic assay, Daudi; assay type: cell-based; conditions: Table 2
Protocol: as §1

[26] = test system: CEM cells; experiment: Cytostatic assay, CEM; assay type: cell-based; conditions: Homo sapiens, CCRF-CEM
In short: as §2

[27] = test system: C8166 cells; experiment: Cytostatic assay, C8166; assay type: cell-based; conditions: Homo sapiens, Table 2
In short: as §2

[28] = test system: Huh-7 hepatoma cells; experiment: Cytostatic assay, Huh-7; assay type: cell-based; conditions: Homo sapiens, Table 4
In short: as §2

[29] = test system: RNA synthesis in CEM cells; experiment: Antimetabolic activity assay, [5-3H]uridine incorporation (RNA synthesis), CEM; assay type: cell-based; conditions: Homo sapiens, CCRF-CEM, incorporation into TCA-insoluble material
Protocol: as §3

[30] = test system: Caki-1 kidney carcinoma cells; experiment: Cytostatic assay, Caki-1; assay type: cell-based; conditions: Homo sapiens, Table 3
In short: as §2

[31] = test system: DNA synthesis in Raji cells; experiment: Antimetabolic activity assay, [CH3-3H]dThd incorporation (DNA synthesis), Raji; assay type: cell-based; conditions: Homo sapiens, incorporation into TCA-insoluble material
Protocol: [The procedure below names another cell line; the source lists this cell line under the same test.] as §3

[32] = test system: HOS CD4+ osteosarcoma cells; experiment: Cytostatic assay, HOS CD4+; assay type: cell-based; conditions: Homo sapiens; Table 3
Protocol: as §1

[33] = test system: U87 CD4+/CXCR4+/CCR5+ glioma cells; experiment: Cytostatic assay, U87 CD4+/CXCR4+/CCR5+; assay type: cell-based; conditions: Homo sapiens, Glioma cell; Table 3
Protocol: as §1

[34] = test system: PNT1A (UZ) prostate cells; experiment: Cytostatic assay, PNT1A (UZ); assay type: cell-based; conditions: Homo sapiens, Table 4
In short: as §2

[35] = test system: LNCaP (UZ) prostate cancer cells; experiment: Cytostatic assay, LNCaP (UZ); assay type: cell-based; conditions: Homo sapiens, Table 4
In short: as §2

[36] = test system: PC-3 (UZ) prostate cancer cells; experiment: Cytostatic assay, PC-3 (UZ); assay type: cell-based; conditions: Table 4
In short: as §2

[37] = test system: Raji, human B-lymphoma cells; experiment: Cytostatic assay, Raji; assay type: cell-based; conditions: Table 2
In short: as §2

[38] = test system: U87 glioma cells; experiment: Cytostatic assay, U87; assay type: cell-based; conditions: Homo sapiens, U-87 MG; Table 3
In short: as §2

[39] = test system: HL60, human leukemia cells; experiment: Cytostatic assay, HL-60; assay type: cell-based; conditions: Table 2
In short: as §2

[40] = test system: PC3 (rega) prostate cancer cells; experiment: Cytostatic assay, PC3 (rega); assay type: cell-based; conditions: Table 4
In short: as §2

[41] = test system: protein synthesis in CEM cells; experiment: Antimetabolic activity assay, [4,5-3H]leucine incorporation (protein synthesis), CEM; assay type: cell-based; conditions: Homo sapiens, CCRF-CEM, incorporation into TCA-insoluble material
Protocol: as §3

[42] = test system: BPH-1 (UZ); experiment: Cytostatic assay, BPH-1 (UZ); assay type: cell-based; conditions: Homo sapiens, Table 4
In short: as §2

[43] = test system: L1210 cells; experiment: Cytostatic assay, L1210; assay type: cell-based; conditions: Mus musculus, Table 2
In short: as §2

[44] = Table 1a, read-out: IC50 μM (CEM)
[45] = Table 2, read-out: Cytostatic activity (μM) CEM

IC50 ([1]; Homo sapiens, HuT78, range for the seven compounds, MT-4 and HUT-78 cells, read-out: IC50 range, cytostatic activity against MT-4 and HUT-78 cells): 8500 to 60000 nM
IC50 ([1]; range for the seven compounds against the 5 tumor cell lines, read-out: IC50 range, cytostatic activity against CEM, Molt4/C8, Sup T1, MT-2 and C8166 cells): 220 to 3400 nM
IC50 [2]: 7.6 ± 2.4 µM
IC50 [3]: 4.5 ± 1.9 µM
IC50 [4]: 10 ± 0.85 µM
IC50 [5]: 8.6 ± 0.28 µM
IC50 [6]: 2.1 ± 0.071 µM
IC50 [7]: 17 ± 7.8 µM
IC50 [9]: 13 ± 4.2 µM
IC50 [10]: 18 ± 4.2 µM
IC50 [11]: 0.81 ± 0.49 µM
IC50 [12]: 6.4 ± 4.1 µM
IC50 [13]: 5.7 ± 2.8 µM
IC50 [14]: 17 ± 2.1 µM
IC50 [15]: 1.5 µM
IC50 [16]: 68 ± 8 µM
IC50 [17]: 20 ± 4.2 µM
IC50 [18]: 22 ± 3.5 µM
IC50 [19]: 13 ± 1.4 µM
IC50 [21]: 45 ± 8 µM
IC50 [23]: 37 ± 0.71 µM
IC50 [24]: 11 ± 7 µM
IC50 [25]: 13 ± 0.71 µM
IC50 [26, 44]: 1.8 µM
IC50 [26, 45]: 1.8 ± 0.92 µM
IC50 [27]: 3 ± 0.21 µM
IC50 [28]: 3.4 ± 1.2 µM
IC50 [29]: 2.6 ± 0.6 µM
IC50 [30]: 3.7 ± 1.8 µM
IC50 [31]: 54 ± 8 µM
IC50 [32]: 23 ± 4.2 µM
IC50 [33]: 32 ± 2.1 µM
IC50 [34]: 17 ± 2.8 µM
IC50 [35]: 0.43 ± 0.14 µM
IC50 [36]: 1.4 ± 0.071 µM
IC50 [37]: 19 ± 4.2 µM
IC50 [38]: 38 µM
IC50 [39]: 4 ± 3.3 µM
IC50 [40]: 0.71 ± 0.28 µM
IC50 [41]: 1.4 ± 0.9 µM
IC50 [42]: 39 ± 2.8 µM
Structure (SMILES): COC(=O)c1cc(CCc2ccccc2OC)sc1N [TR567, 2-Amino-5-[2-(2-methoxy-phenyl)-ethyl]-thiophene-3-carboxylic acid methyl ester]
IC50 [8]: 22 ± 15 µM
IC50 [20]: 14 ± 2.8 µM
IC50 [22]: 20 ± 7.8 µM

IC50 ([1]; range over the cell lines of Tables 2-4, read-out: IC50 range (antiproliferative activity)): 20 to 130 nM
IC50 [3]: 0.042 ± 0.004 µM
IC50 [4]: 0.036 ± 0.001 µM
IC50 [5]: 0.29 ± 0.18 µM
IC50 [6]: 0.027 ± 0.001 µM
IC50 [7]: 0.046 ± 0.012 µM
IC50 [9]: 0.062 ± 0.039 µM
IC50 [43]: 0.064 ± 0.025 µM
IC50 [10]: 0.041 ± 0.013 µM
IC50 [11]: 0.058 ± 0.056 µM
IC50 [12]: > 100 µM
IC50 [13]: < 0.032 µM
IC50 [14]: 0.13 ± 0.06 µM
IC50 [15]: 0.017 ± 0.012 µM
IC50 [16]: 90 ± 14 µM
IC50 [17]: < 0.032 µM
IC50 [18]: 0.026 ± 0.0014 µM
IC50 [19]: 0.022 ± 0.003 µM
IC50 [21]: 39 ± 36 µM
IC50 [23]: 0.05 ± 0.046 µM
IC50 [24]: 0.061 ± 0.016 µM
IC50 [26, 44]: 0.015 µM
IC50 [26, 45]: 0.015 µM
IC50 [27]: 0.021 ± 0.009 µM
IC50 [28]: < 0.16 µM
IC50 [29]: 44 ± 11 µM
IC50 [30]: 0.016 ± 0.001 µM
IC50 [31]: ≥ 100 µM
IC50 [34]: < 0.032 µM
IC50 [35]: < 0.032 µM
IC50 [36]: < 0.032 µM
IC50 [37]: 0.063 ± 0.013 µM
IC50 [38]: 0.038 ± 0.008 µM
IC50 [39]: 0.024 ± 0.004 µM
IC50 [40]: < 0.032 µM
IC50 [41]: 20 µM
IC50 [42]: < 0.032 µM
Structure (SMILES): COc1ccc(OC)c(CCc2cc(C#N)c(N)s2)c1 [TR589, 2-Amino-5-[2-(2,5-dimethoxy-phenyl)-ethyl]-thiophene-3-carbonitrile]
fold more cytostatic than the corresponding -COOEt-containing compound 16b [1]: 50 fold
IC50 [8]: < 0.032 µM
IC50 [20]: 0.086 ± 0.048 µM
IC50 [22]: < 0.032 µM
